Measurements reported in US10189809B2, “SGC stimulators” (Ironwood Pharmaceuticals, Inc., priority 2010, dated 2019).

Experiments:
[1] = system: Thoracic aortic rings; test: Thoracic aortic rings assay (Example 19a; IBMX as 100% inhibition); conditions: compound at 10 μM; rat thoracic aortic rings contracted with 100 ng/mL phenylephrine; read-out: Percent Relaxation at 10 μM
Experimental: Thoracic aortic rings were dissected from anesthetized (isoflurane) male Sprague-Dawley rats weighing 275-299 g. Tissues were immediately transferred to ice-cold Krebs-Henseleit solution, which had been aerated with 95% O2 and 5% CO2 for 30 minutes. Following removal of connective tissue, aortic sections were cut into 4 rings (˜2 mm each) and suspended on 2 L-shaped hooks, with one hook fixed at the bottom of the tissue bath (Schuler Organ Bath, Harvard Apparatus) and the other connected to a force transducer (F30 Force Transducer, Harvard Apparatus). Baths contained Krebs Henseleit solution (10 mL) heated to 37° C. and aerated with 95% O2 and 5% CO2. Rings were brought to an initial tension of 0.3-0.5 g and gradually raised to a resting tension of 1.0 g over 60 minutes. Rings were rinsed with Krebs Henseleit solution (heated to 37° C. and aerated with 95% O2 and 5% CO2) at 15 minute intervals until a stable baseline was obtained. Rings were considered to be stable after a resting tension of 1.0 g was maintained (for approximately 10 minutes) without need for adjustment. Rings were then contracted with 100 ng/mL phenylephrine by adding 100 uL of a 10 μg/mL phenylephrine stock solution. Tissues achieving a stable contraction were then treated in a cumulative, dose dependent manner with test compounds prepared in dimethylsulfoxide (DMSO). In some cases, tissues were rinsed three times over a 5 minute period with Krebs-Heinseleit's solution (heated to 37° C. and aerated with 95% O2 and 5% CO2), allowed to stabilize at baseline, and then used for characterization of other test articles or DMSO effects. All data were collected using the HSE-ACAD software provided by Harvard Apparatus. […] EC50 values were calculated from concentration-response curves generated with GraphPad Prism Software.

[2] = biological target: T1, soluble guanylate cyclase (sGC) (Homo sapiens (Human), UniProt Q02108+Q02153); test: sGC-HEK-cGMP assay run in the absence of SNP (HEK WC assay); assay type: cell-based; conditions: no SNP, increase in the sGC receptor activity; for HEK WC Assay (fold increase at 10 μM): compound at 10 μM; for HEK WC Assay (fold increase at 30 μM): compound at 30 μM
T1 sequence (Q02153 whole entry): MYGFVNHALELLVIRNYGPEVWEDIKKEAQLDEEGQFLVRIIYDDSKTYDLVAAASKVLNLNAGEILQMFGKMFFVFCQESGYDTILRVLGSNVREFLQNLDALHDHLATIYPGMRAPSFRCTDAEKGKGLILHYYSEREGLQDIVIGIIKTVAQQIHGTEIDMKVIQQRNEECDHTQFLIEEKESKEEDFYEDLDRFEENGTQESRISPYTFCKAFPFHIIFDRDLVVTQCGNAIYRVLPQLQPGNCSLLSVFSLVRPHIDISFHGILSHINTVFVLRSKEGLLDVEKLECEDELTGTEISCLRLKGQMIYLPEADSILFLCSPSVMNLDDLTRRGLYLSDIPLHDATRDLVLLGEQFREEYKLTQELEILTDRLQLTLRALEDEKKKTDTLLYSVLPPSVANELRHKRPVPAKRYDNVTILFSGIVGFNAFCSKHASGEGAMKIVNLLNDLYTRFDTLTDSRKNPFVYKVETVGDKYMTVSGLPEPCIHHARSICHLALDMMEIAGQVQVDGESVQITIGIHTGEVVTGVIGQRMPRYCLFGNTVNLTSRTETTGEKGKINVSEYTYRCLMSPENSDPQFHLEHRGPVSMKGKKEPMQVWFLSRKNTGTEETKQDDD
T1 sequence (Q02108 whole entry): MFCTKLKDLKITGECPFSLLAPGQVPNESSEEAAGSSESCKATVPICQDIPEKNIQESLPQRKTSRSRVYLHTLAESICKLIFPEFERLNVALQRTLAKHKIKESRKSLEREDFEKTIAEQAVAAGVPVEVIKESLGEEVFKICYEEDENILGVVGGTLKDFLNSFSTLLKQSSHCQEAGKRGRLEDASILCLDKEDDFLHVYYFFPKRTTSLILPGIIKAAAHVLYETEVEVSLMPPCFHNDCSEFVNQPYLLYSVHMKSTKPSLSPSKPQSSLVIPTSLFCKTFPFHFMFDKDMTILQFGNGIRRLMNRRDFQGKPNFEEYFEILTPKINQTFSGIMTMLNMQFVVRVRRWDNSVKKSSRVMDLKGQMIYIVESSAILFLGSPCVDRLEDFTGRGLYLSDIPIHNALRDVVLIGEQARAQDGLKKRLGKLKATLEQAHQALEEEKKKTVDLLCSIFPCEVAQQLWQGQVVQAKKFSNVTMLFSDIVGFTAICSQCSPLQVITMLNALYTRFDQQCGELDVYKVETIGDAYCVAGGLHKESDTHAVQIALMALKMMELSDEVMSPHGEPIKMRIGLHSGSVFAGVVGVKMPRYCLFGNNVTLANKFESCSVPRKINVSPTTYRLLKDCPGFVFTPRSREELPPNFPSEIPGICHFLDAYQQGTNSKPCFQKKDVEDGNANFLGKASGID
How it was run: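 HEK293 cells with endogenous sGC, preincubated 15 min at 37° C with 0.5 mM IBMX, then exposed to test compound 10 min at 37° C without SNP. Cells lysed in 0.1 M HCl; cGMP quantified by LC/MS against a standard curve. EC50 from concentration-response curves.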

[3] = biological target: T2, Human soluble guanylate cyclase enzyme (hsGC) (Homo sapiens (Human), UniProt Q02108+Q02153); test: Purified human sGC enzyme activity assay; assay type: biochemical; conditions: for sGC Enzyme (specific activity at 10 μM) / sGC Enzyme (fold increase at 10 μM without SNP): 10 μM compound; for sGC Enzyme (specific activity at 30 μM) / sGC Enzyme (fold increase at 30 μM without SNP): 30 μM compound
T2 sequence (Q02153 whole entry): as the sequence (Q02153 whole entry) above
T2 sequence (Q02108 whole entry): as the sequence (Q02108 whole entry) above
How it was run: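 Purified human sGC (5 ng) incubated 30 min at 37° C with compound at 10 or 30 μM final in pH 8.0 Tris with 300 μM GTP, 2 mM MgCl2, 2 mM DTT and 1 mM IBMX, then stopped with cold methanol. cGMP quantified against a standard curve. Specific activity (nmol cGMP/mg sGC/min) expressed as fold-change over DMSO control.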

[4] = biological target: T1, soluble guanylate cyclase (sGC); test: sGC-HEK-cGMP assay run with SNP incubation (HEK WC assay); assay type: cell-based; conditions: for Emax at 10 µM: read-out: HEK WC Assay (% Emax at 10 uM/with 10 uM SNP); for Emax at 30 µM: read-out: HEK WC Assay (% Emax at 30 uM/with 10 uM SNP)
How it was run: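 HEK293 cells with endogenous sGC were pretreated with 0.5 mM IBMX for 15 min at 37 °C, then exposed to test compound plus sodium nitroprusside for 10 min at 37 °C.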

[5] = biological target: T2, Human soluble guanylate cyclase enzyme (hsGC); test: Purified human sGC enzyme synergy assay in the presence of 1 μM sodium nitroprusside (SNP); assay type: biochemical; conditions: with 1 μM SNP; for sGC Enzyme (fold increase at 10 μM with SNP): 10 μM compound; for sGC Enzyme (fold increase at 30 μM with SNP): 30 μM compound
How it was run: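 Purified human sGC (5 ng) incubated 30 min at 37 °C with compounds at 10 or 30 μM, 1 μM sodium nitroprusside, 300 μM GTP and 1 mM IBMX in Tris pH 8.0 with MgCl2/DTT. cGMP quantified against a standard curve, and specific activity expressed as fold-change over DMSO control.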

## Fc1ccccc1Cn1nc(-c2ncccn2)cc1-c1ccccc1 [Compound I-2]
[1]
  inhibition at 10 µM: 101%
[2]
  HEK WC Assay (fold increase at 10 μM): A (A = no increase to <1 fold increase)
  HEK WC Assay (fold increase at 30 μM): B (B = 1 to <2 fold increase)
[3]
  sGC Enzyme (specific activity at 10 μM): B (B = 50 to <100)
  sGC Enzyme (fold increase at 10 μM without SNP): B (B = 2 to <5 fold increase)
  sGC Enzyme (specific activity at 30 μM): A (A = 0 to <50)
  sGC Enzyme (fold increase at 30 μM without SNP): B (B = 2 to <5 fold increase)
[4]
  Emax at 10 µM: 10 to 20%
  Emax at 30 µM: 20 to 40%

## Fc1ccccc1Cn1nc(-c2ccccn2)cc1-c1nnco1 [Compound I-45]
[1]
  inhibition at 10 µM: 94.9%
[5]
  sGC Enzyme (fold increase at 10 μM with SNP): C (C = 5 to <10 fold increase)
  sGC Enzyme (fold increase at 30 μM with SNP): D (D = equal or >10 fold increase)
[3]
  sGC Enzyme (specific activity at 10 μM): C (C = 100 to <200)
  sGC Enzyme (fold increase at 10 μM without SNP): A (A = no increase to <2 fold increase)
  sGC Enzyme (specific activity at 30 μM): C (C = 100 to <200)
  sGC Enzyme (fold increase at 30 μM without SNP): B (B = 2 to <5 fold increase)
[4]
  Emax at 10 µM: 20 to 40%
  Emax at 30 µM: 20 to 40%

## Nc1ccnc(-c2cc(-c3ccsc3)n(Cc3ccccc3F)n2)n1 [Compound I-49]
[1]
  inhibition at 10 µM: 106%
[3]
  sGC Enzyme (specific activity at 10 μM): D (D = 200 to <500)
  sGC Enzyme (fold increase at 10 μM without SNP): C (C = 5 to <10 fold increase)
  sGC Enzyme (specific activity at 30 μM): E (E = 500 to <1000)
  sGC Enzyme (fold increase at 30 μM without SNP): D (D = equal or >10 fold increase)
[4]
  Emax at 10 µM: 20 to 40%
  Emax at 30 µM: 40 to 60%

## Fc1ccccc1Cn1nc(-c2ccccn2)cc1-c1ccsc1 [Compound I-26]
[1]
  inhibition at 10 µM: 85.3%
[5]
  sGC Enzyme (fold increase at 10 μM with SNP): C (C = 5 to <10 fold increase)
  sGC Enzyme (fold increase at 30 μM with SNP): D (D = equal or >10 fold increase)
[3]
  sGC Enzyme (specific activity at 10 μM): D (D = 200 to <500)
  sGC Enzyme (fold increase at 10 μM without SNP): B (B = 2 to <5 fold increase)
  sGC Enzyme (specific activity at 30 μM): D (D = 200 to <500)
  sGC Enzyme (fold increase at 30 μM without SNP): C (C = 5 to <10 fold increase)
[4]
  Emax at 10 µM: 20 to 40%
  Emax at 30 µM: 40 to 60%

## Fc1ccccc1Cn1nc(-c2ncccn2)cc1-c1cccs1 [Compound I-66]
[1]
  inhibition at 10 µM: 103%
[5]
  sGC Enzyme (fold increase at 10 μM with SNP): C (C = 5 to <10 fold increase)
  sGC Enzyme (fold increase at 30 μM with SNP): D (D = equal or >10 fold increase)
[3]
  sGC Enzyme (specific activity at 10 μM): B (B = 50 to <100)
  sGC Enzyme (fold increase at 10 μM without SNP): B (B = 2 to <5 fold increase)
  sGC Enzyme (specific activity at 30 μM): C (C = 100 to <200)
  sGC Enzyme (fold increase at 30 μM without SNP): C (C = 5 to <10 fold increase)
[4]
  Emax at 10 µM: 20 to 40%
  Emax at 30 µM: 20 to 40%

## Fc1ccccc1Cn1nc(-c2ccccn2)cc1-c1ccccn1 [Compound I-1]
[1]
  inhibition at 10 µM: 53.7%
[2]
  HEK WC Assay (fold increase at 10 μM): A (A = no increase to <1 fold increase)
  HEK WC Assay (fold increase at 30 μM): C (C = 2 to <5 fold increase)
[3]
  sGC Enzyme (specific activity at 10 μM): B (B = 50 to <100)
  sGC Enzyme (fold increase at 10 μM without SNP): B (B = 2 to <5 fold increase)
  sGC Enzyme (specific activity at 30 μM): C (C = 100 to <200)
  sGC Enzyme (fold increase at 30 μM without SNP): C (C = 5 to <10 fold increase)
[4]
  Emax at 10 µM: 0 to 10%
  Emax at 30 µM: 10 to 20%

## Nc1ccnc(-c2cc(-c3ccccn3)n(Cc3ccccc3F)n2)n1 [Compound I-31]
[1]
  inhibition at 10 µM: 93.2%
[5]
  sGC Enzyme (fold increase at 10 μM with SNP): B (B = 2 to <5 fold increase)
  sGC Enzyme (fold increase at 30 μM with SNP): C (C = 5 to <10 fold increase)
[3]
  sGC Enzyme (specific activity at 10 μM): C (C = 100 to <200)
  sGC Enzyme (fold increase at 10 μM without SNP): A (A = no increase to <2 fold increase)
  sGC Enzyme (specific activity at 30 μM): C (C = 100 to <200)
  sGC Enzyme (fold increase at 30 μM without SNP): B (B = 2 to <5 fold increase)
[4]
  Emax at 10 µM: 0 to 10%
  Emax at 30 µM: 10 to 20%
